Results published in patent EP4599817A1, “IMPACT ON ENAMEL AND DENTINE […] THROUGH MEDIATED IMPACT OF ANTAGONISTS ON TRPV1 AND TRCP5 […] IN ORAL CARE PRODUCTS” (SkyLab AG, priority 2024, dated 2025).
Values joined by “and” are separate entries in the source; they are usually repeats but may differ in a detail not shown here. Equal values may be shown once.

What was measured:
TRPV1 = TRPV1 (Homo sapiens, UniProt Q8NER1); conditions: clinical trial after third molar extraction; trial terminated; cited from earlier work
hypersensitive teeth = experiment: Randomized controlled study of dentine hypersensitivity: visual analogue scale (VAS) score with hot applicator and ice cube, before and after first mouthwash application; format: in vivo, patients; set-up: key to Before Ice / Before Hot: VAS score, 0 = no pain to 10 = severe pain (10 cm line); conditions: for Hot After 1 use Mean / Ice After 1 use Mean / Before Hot Mean / Before Ice Mean / Hot After 1 use / Ice After 1 use: VAS 0-10; for Hot After 1 use Mean / Ice After 1 use Mean / Before Hot Mean / Before Ice Mean: group mean of 6 subjects; for Hot After 1 use Mean / Ice After 1 use Mean: after first application of mouthwash; for Hot After 1 use Mean / Before Hot Mean / Hot After 1 use / Before Hot / Modifications in HS after the product application, Hot After 1 use, %: applicator heated to 90C; for Ice After 1 use Mean / Before Ice Mean / Ice After 1 use / Before Ice / Modifications in HS after the product application, Ice After 1 use, %: ice cube; for Before Hot Mean / Before Ice Mean / Before Hot / Before Ice: baseline before mouthwash; for Hot After 1 use / Ice After 1 use / Before Hot / Before Ice: individual subjects 1-6; for Hot After 1 use / Ice After 1 use: after first application of mouthwash (potassium nitrate 5%, galangin 0,1%, adenosine 0,05%, oleic acid 0,1% or combination); for Before Hot / Before Ice: VAS 0 - no pain, 10 - severe pain; for Modifications in HS after the product application, Hot After 1 use, % / Modifications in HS after the product application, Ice After 1 use, %: decrease of mean VAS versus before, mouthwash, first application
Text: Table 2. Schedule of enrollment, intervention and assessment of the study
• Age from 18 to 35 years old • Good overall health; • At least one DHS tooth with sensitivity over or equal to 4 (VAS). Withdrawal criteria • Active caries or defective restorations on the tested tooth; • Considerable loss of dentine, requiring remedial treatment or paradental surgery; • Presence of veneers; • Any professional desensitizing treatment during previous 6 months; • Use of desensitizing toothpaste during previous 3 months. • Use of anti-inflammatory medicine or painkillers during enrollment; • Currently pregnant of breast-feeding.
The subjects were randomized into 6 treatment groups, two control groups of which were negative and positive controls (Fig. 3).
For random distribution of subjects, randomization was made as a draw with the website www.randomizer.org. An average value of initial points according to DHS degree was determined for each subject, and the subjects were randomized into treatment groups providing the equivalent initial DHS points for various treatment modes. All the hypersensitive teeth in each subject were estimated with the use of DHS; an average value was considered for the baseline. All the hypersensitive teeth were subjected and re-estimated. Next, and average value was calculated for the final estimation of sensitivity.
These products were used by them till the end of the study. An oral care set included soft toothbrush and toothpaste for general oral care.
The treatment groups received mouthwashes with the following systems; Table 3. Basic formulation of mouthwash to include the system: […]
The primary result expected in the study was the decrease of dental hypersensitivity after the first application of the product. The result of the system application was calculated with a visual analogue scale, which registers sensitivity with a 10 cm line. The line extremums are the pain limits, which the subject can feel from external irritant (0 - no pain; 10 - severe pain). First, dental sensitivity was registered with an ice cube and an applicator heated to 90C. After the first application, sensitivity to external irritant was registered with an ice cube and an applicator heated to 90C.
The tested sample size was 36 subjects. The data was collected and then filtered out from errors and processed with the standard functionality of MS Excel. The charts were made with Microsoft Excel software. Table 5. Results of hypersensitivity assessment study

[1] = pure galangin; cited from earlier work
CYP1A1 = target: T1, CYP1A1 (Homo sapiens, UniProt P04798); conditions: with various proteins, such as CYP1A1; transformation into kaempferol; cited from earlier work
T1 sequence (P04798 1-512): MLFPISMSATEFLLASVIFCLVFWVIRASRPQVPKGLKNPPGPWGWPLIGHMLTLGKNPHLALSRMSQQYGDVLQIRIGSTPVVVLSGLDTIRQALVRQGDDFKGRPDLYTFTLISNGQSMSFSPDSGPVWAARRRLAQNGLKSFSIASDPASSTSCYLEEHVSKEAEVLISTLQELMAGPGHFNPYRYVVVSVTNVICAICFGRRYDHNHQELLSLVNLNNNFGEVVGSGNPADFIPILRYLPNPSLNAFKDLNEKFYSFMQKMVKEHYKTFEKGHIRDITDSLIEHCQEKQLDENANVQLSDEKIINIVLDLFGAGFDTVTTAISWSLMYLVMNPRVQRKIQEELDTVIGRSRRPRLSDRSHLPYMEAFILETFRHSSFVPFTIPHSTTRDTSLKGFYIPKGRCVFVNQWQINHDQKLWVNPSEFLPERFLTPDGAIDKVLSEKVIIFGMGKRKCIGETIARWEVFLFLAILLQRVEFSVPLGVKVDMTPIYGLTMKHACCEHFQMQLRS

[2] = oral administration; due to intensive metabolism; cited from earlier work
TRPC5 = conditions: animal model, cited from earlier work
TRPC5 receptors = target: T2, TRPC5 receptors (Homo sapiens, UniProt Q9UL62); conditions: compared with galangin; cited from earlier work
T2 sequence (Q9UL62 1-973): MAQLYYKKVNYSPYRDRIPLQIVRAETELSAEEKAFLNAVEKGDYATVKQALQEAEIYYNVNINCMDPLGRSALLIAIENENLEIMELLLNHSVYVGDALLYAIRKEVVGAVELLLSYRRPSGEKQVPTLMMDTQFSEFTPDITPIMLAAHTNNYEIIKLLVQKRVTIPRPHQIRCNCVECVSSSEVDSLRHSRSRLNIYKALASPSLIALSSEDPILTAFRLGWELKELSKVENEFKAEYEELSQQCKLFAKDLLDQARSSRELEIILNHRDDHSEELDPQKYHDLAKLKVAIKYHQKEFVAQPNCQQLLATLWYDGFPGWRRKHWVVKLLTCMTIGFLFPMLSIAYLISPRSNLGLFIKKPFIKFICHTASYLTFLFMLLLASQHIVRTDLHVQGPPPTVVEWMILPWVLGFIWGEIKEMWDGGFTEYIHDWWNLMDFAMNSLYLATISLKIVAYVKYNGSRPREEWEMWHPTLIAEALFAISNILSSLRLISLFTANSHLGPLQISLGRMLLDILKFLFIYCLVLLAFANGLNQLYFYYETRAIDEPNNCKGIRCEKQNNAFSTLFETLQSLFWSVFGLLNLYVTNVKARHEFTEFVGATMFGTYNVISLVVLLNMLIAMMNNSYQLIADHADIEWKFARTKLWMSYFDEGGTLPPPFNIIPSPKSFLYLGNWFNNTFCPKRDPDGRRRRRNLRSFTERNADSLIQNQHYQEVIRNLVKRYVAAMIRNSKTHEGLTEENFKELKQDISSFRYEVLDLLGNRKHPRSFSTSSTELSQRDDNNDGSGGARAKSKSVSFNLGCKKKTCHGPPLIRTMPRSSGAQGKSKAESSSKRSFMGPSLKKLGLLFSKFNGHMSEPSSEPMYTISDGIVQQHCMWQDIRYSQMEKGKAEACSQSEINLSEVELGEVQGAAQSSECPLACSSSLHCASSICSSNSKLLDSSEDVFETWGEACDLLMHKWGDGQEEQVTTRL

Sequence of TRPV1 (Q8NER1 whole entry): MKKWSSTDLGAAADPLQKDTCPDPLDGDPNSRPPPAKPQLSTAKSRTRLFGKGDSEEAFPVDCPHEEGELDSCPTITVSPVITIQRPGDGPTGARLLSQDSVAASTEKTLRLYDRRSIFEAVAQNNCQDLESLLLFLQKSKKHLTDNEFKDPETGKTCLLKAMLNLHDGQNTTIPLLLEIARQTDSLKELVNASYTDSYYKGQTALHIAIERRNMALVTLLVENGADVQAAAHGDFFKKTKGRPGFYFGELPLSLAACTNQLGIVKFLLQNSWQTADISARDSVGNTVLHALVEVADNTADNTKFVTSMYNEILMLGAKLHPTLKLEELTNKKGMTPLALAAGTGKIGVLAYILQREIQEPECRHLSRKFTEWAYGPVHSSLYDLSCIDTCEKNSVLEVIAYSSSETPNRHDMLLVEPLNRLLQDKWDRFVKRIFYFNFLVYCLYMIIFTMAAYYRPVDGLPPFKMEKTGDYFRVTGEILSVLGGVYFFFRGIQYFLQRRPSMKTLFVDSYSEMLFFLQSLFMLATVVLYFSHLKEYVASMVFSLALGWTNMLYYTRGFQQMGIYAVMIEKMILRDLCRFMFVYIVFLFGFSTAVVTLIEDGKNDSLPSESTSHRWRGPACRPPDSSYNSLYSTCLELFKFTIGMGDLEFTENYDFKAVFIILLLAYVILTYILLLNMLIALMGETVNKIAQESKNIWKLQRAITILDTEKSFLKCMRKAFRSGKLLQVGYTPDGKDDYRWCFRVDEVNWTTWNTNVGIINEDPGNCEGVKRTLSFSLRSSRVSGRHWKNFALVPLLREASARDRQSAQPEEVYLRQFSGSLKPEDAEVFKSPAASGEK

| Structure (SMILES) | Hot After 1 use Mean (hypersensitive teeth) | Ice After 1 use Mean (hypersensitive teeth) | Before Hot Mean (hypersensitive teeth) | Before Ice Mean (hypersensitive teeth) | Modifications in HS after the product application, Hot After 1 use, % (hypersensitive teeth) [%] | Modifications in HS after the product application, Ice After 1 use, % (hypersensitive teeth) | other results |
| --- | --- | --- | --- | --- | --- | --- | --- |
| CC(=O)Nc1nc2c(Oc3cc(-c4ccc(C(F)(F)F)cc4)ncn3)cccc2s1 [AMG 517] |  |  |  |  |  |  | body temperature (TRPV1): increased body temperature |
| Nc1ncnc2c1ncn2[C@@H]1O[C@H](CO)[C@@H](O)[C@H]1O [Adenosine, adenosine] | 4 | 6,8 | 7,3 | 7 | 45.2 | 2.8% | Hot After 1 use (hypersensitive teeth; listed as 4): 5 and 6 and 4 (2×) and 2 and 3; Ice After 1 use (hypersensitive teeth; listed as 4): 8 and 9 and 6 (2×) and 5 and 7; Before Hot (hypersensitive teeth; listed as 4): 8 and 9 (2×) and 7 and 6 and 5; Before Ice (hypersensitive teeth; listed as 4): 8 (2×) and 7 (2×) and 6 (2×) |
| O=c1c(O)c(-c2ccccc2)oc2cc(O)cc(O)c12 [Galangin, galangin] | 4,6 | 2,5 | 5,2 | 5,8 | 11.5 | 56,9% | solubility in water [1]: practically insoluble in water; metabolic oxidation (CYP1A1): prone to rapid metabolic oxidation; bioavailability [2]: extremely low bioavailability; Hot After 1 use (hypersensitive teeth; listed as 3): 4 and 6 and 3 and 5 (3×); Ice After 1 use (hypersensitive teeth; listed as 3): 3 (2×) and 2 (2×) and 4 and 1; Before Hot (hypersensitive teeth; listed as 3): 3 and 6 (2×) and 4 and 7 and 5; Before Ice (hypersensitive teeth; listed as 3): 6 (3×) and 5 (2×) and 7 |
| Cc1cc(N2CCCCC2)nc2ccccc12 [ML204] |  |  |  |  |  |  | response to cold and pain (TRPC5; TRPC5 blockers): effectively eliminated any response to cold and prevented pain |
| CCCCCCCC/C=C\CCCCCCCC(=O)O [Oleic acid, oleic acid] | 4,3 | 5,2 | 6,8 | 7,2 | 36.8 | 27.8% | Hot After 1 use (hypersensitive teeth; listed as 5): 3 and 5 and 4 (3×) and 6; Ice After 1 use (hypersensitive teeth; listed as 5): 8 and 4 (2×) and 6 (2×) and 3; Before Hot (hypersensitive teeth; listed as 5): 5 and 9 and 6 (2×) and 8 and 7; Before Ice (hypersensitive teeth; listed as 5): 9 and 8 (2×) and 5 and 7 and 6 |
| O=[N+]([O-])[O-].[K+] [Potassium nitrate] | 6 | 5,7 | 6,7 | 7,6 | 10.4 | 25% | Hot After 1 use (hypersensitive teeth; listed as 1): 5 (2×) and 4 and 7 (2×) and 8; Ice After 1 use (hypersensitive teeth; listed as 1): 5 (2×) and 4 and 7 (2×) and 6; Before Hot (hypersensitive teeth; listed as 1): 5 (2×) and 6 and 8 (3×); Before Ice (hypersensitive teeth; listed as 1): 7 and 8 (3×) and 6 and 9 |
| O=c1c(O)c(-c2ccc(O)cc2)oc2cc(O)cc(O)c12 [kaempferol] |  |  |  |  |  |  | impact on TRPC5 receptors (TRPC5 receptors): either does not affect TRPC5 receptors, or shows a significantly milder impact than that of galangin |
| Nc1nc2ccc(OC(F)(F)F)cc2s1 [ruizole] |  |  |  |  |  |  | jaw sensitivity (TRPC5; agonist of TRPC5 channel): increased jaw sensitivity |
